Results published in the NIST ThermoML archive (doi:10.1016/j.fluid.2005.07.010).
Numbers after ± are expanded uncertainties.

Settings: Liquid; for mass density / viscosity: 298.15 K, 101.33 kPa; for Normal boiling temperature: Ebulliometric method (Recirculating still)

SMILES	mass density [kg/m3]	viscosity [mPa·s]	Normal boiling temperature [°C]
CC(=O)O [acetic acid]	1043.6 ± 0.6	1.115 ± 0.035	117.80 ± 0.2
CCO [ethanol]	785.4 ± 0.6	1.082 ± 0.034	78.28 ± 0.2
CCOC(C)=O [ethyl acetate]	894.4 ± 0.4	0.426 ± 0.016	77.12 ± 0.2
